Values of other authors in PubChem BioAssay AID1259409 (Chemical Carcinogenesis Research Information System (CCRIS), 2018).

Test system: rodent chemically induced tumor inhibition, incidence and multiplicity
Assay: CCRIS tumor inhibitor studies
Conditions: Promoter: NONE USED

## CC1=C(/C=C/C(C)=C/C=C/C(C)=C/C=C/C=C(C)/C=C/C=C(C)/C=C/C2=C(C)C(=O)CCC2(C)C)C(C)(C)CCC1=O
Carcinogen: 4-NITROQUINOLINE-1-OXIDE, 56-57-5, Dose [Inhibitor]: 0, 100 PPM IN DIET FOR 10 WK BEGINNING PRIOR TO CARCINOGEN TREATMENT (STUDY DURATION: 32 WK), Route [Inhibitor]: ORAL, Species: RAT, Strain/Sex: F344/MALE, Target Tissue: Type of Lesion: TONGUE: PAPILLOMA, Dose [Carcinogen]: 20 PPM IN DRINKING WATER FOR 8 WK
  tumour outcome (control, treated, inhibition, significance): 4/24 (17%), 0/17 (0%), 100%, p<0.05
Carcinogen: 4-NITROQUINOLINE-1-OXIDE, 56-57-5, Dose [Inhibitor]: 0, 100 PPM IN DIET FOR 10 WK BEGINNING PRIOR TO CARCINOGEN TREATMENT (STUDY DURATION: 32 WK), Route [Inhibitor]: ORAL, Species: RAT, Strain/Sex: F344/MALE, Target Tissue: Type of Lesion: TONGUE: SQUAMOUS CELL CARCINOMA, Dose [Carcinogen]: 20 PPM IN DRINKING WATER FOR 8 WK
  tumour outcome (control, treated, inhibition, significance): 13/24 (54%), 0/17 (0%), 100%, p<0.05
Carcinogen: 4-NITROQUINOLINE-1-OXIDE, 56-57-5, Dose [Inhibitor]: 0, 100 PPM IN DIET FOR 22 WK BEGINNING 1 WK POST CARCINOGEN TREATMENT (STUDY DURATION: 32 WK), Route [Inhibitor]: ORAL, Species: RAT, Strain/Sex: F344/MALE, Target Tissue: Type of Lesion: TONGUE: PAPILLOMA, Dose [Carcinogen]: 20 PPM IN DRINKING WATER FOR 8 WK
  tumour outcome (control, treated, inhibition, significance): 4/24 (17%), 1/19 (5%), 71%, p<0.05
Carcinogen: 4-NITROQUINOLINE-1-OXIDE, 56-57-5, Dose [Inhibitor]: 0, 100 PPM IN DIET FOR 22 WK BEGINNING 1 WK POST CARCINOGEN TREATMENT (STUDY DURATION: 32 WK), Route [Inhibitor]: ORAL, Species: RAT, Strain/Sex: F344/MALE, Target Tissue: Type of Lesion: TONGUE: SQUAMOUS CELL CARCINOMA, Dose [Carcinogen]: 20 PPM IN DRINKING WATER FOR 8 WK
  tumour outcome (control, treated, inhibition, significance): 13/24 (54%), 1/19 (5%), 91%, p<0.05
Carcinogen: 7,12-DIMETHYLBENZ[A]ANTHRACENE, 57-97-6, Dose [Inhibitor]: 0, 1130 MG/KG OF DIET FROM DAY 34 TO 54 OF AGE (STUDY DURATION: 200 D), Route [Inhibitor]: ORAL, Species: RAT, Strain/Sex: SPRAGUE-DAWLEY/FEMALE, Target Tissue: Type of Lesion: MAMMARY GLAND: ADENOCARCINOMA, Dose [Carcinogen]: 15 MG/RAT ONCE AT 55 D OF AGE
  tumour outcome (control, treated, inhibition, significance): 93%, 80%, 14%, not significant
Carcinogen: 7,12-DIMETHYLBENZ[A]ANTHRACENE, 57-97-6, Dose [Inhibitor]: 0, 1130 MG/KG OF DIET FROM DAY 34 TO 54 OF AGE (STUDY DURATION: 200 D), Route [Inhibitor]: ORAL, Species: RAT, Strain/Sex: SPRAGUE-DAWLEY/FEMALE, Target Tissue: Type of Lesion: MAMMARY GLAND: BENIGN TUMORS, Dose [Carcinogen]: 15 MG/RAT ONCE AT 55 D OF AGE
  tumour outcome (control, treated, inhibition, significance): 28%, 30%, -7%, not calculated
Carcinogen: 7,12-DIMETHYLBENZ[A]ANTHRACENE, 57-97-6, Dose [Inhibitor]: 0, 3390 MG/KG OF DIET FROM DAY 34 TO 54 OF AGE (STUDY DURATION: 200 D), Route [Inhibitor]: ORAL, Species: RAT, Strain/Sex: SPRAGUE-DAWLEY/FEMALE, Target Tissue: Type of Lesion: MAMMARY GLAND: ADENOCARCINOMA, Dose [Carcinogen]: 15 MG/RAT ONCE AT 55 D OF AGE
  tumour outcome (control, treated, inhibition, significance): 93%, 67%, 28%, p<0.05
Carcinogen: 7,12-DIMETHYLBENZ[A]ANTHRACENE, 57-97-6, Dose [Inhibitor]: 0, 3390 MG/KG OF DIET FROM DAY 34 TO 54 OF AGE (STUDY DURATION: 200 D), Route [Inhibitor]: ORAL, Species: RAT, Strain/Sex: SPRAGUE-DAWLEY/FEMALE, Target Tissue: Type of Lesion: MAMMARY GLAND: BENIGN TUMORS, Dose [Carcinogen]: 15 MG/RAT ONCE AT 55 D OF AGE
  tumour outcome (control, treated, inhibition, significance): 28%, 40%, -43%, not calculated
Carcinogen: 7,12-DIMETHYLBENZ[A]ANTHRACENE, 57-97-6, Dose [Inhibitor]: 140 UG (1.5 MG/KG BW) IN 0.4 ML MINERAL OIL 3/WK FOR 28 WK (STUDY DURATION: 28 WK), Route [Inhibitor]: ORAL, Species: HAMSTER, Strain/Sex: SYRIAN/MALE, Target Tissue: Type of Lesion: SKIN: CARCINOMA, Dose [Carcinogen]: 0.1% IN HEAVY MINERAL OIL APPLIED TO BUCCAL POUCH 3/WK FOR 28 WK
  tumour outcome (control, treated, inhibition, significance): 20/20 (100%), 2/20 (10%), 90%, not calculated
Carcinogen: 7,12-DIMETHYLBENZ[A]ANTHRACENE, 57-97-6, Dose [Inhibitor]: 250 MG/KG IN DIET FOR 6 WK PRIOR TO CARCINOGEN DOSE AND CONTINUING FOR 21-22 WK POST CARCINOGEN DOSE (STUDY DURATION: 28, Route [Inhibitor]: ORAL, Species: RAT, Strain/Sex: SPRAGUE-DAWLEY/MALE, Target Tissue: Type of Lesion: SALIVARY GLAND: TUMOR, Dose [Carcinogen]: 1 MG IN 20 µL OLIVE OIL INJECTED INTO SUBMANDIBULAR GLAND ONCE
  tumour outcome (control, treated, inhibition, significance): 20/28 (71%), 21/30 (70%), 1%, not significant
Carcinogen: BENZO[A]PYRENE, 50-32-8, Dose [Inhibitor]: 0, 4.7 MICROMOLAR/D IN 0.1 ML PEANUT OIL BEGINNING 2 WK PRIOR TO CARCINOGEN TREATMENT AND CONTINUING TO 2 WK POST CARCIN, Route [Inhibitor]: GAVAGE, Species: MOUSE, Strain/Sex: SWISS/FEMALE, Target Tissue: Type of Lesion: FORESTOMACH: TUMOR, Dose [Carcinogen]: 1 MG 2/WK IN 0.1 ML PEANUT OIL FOR 4 WK
  tumour outcome (control, treated, inhibition, significance): 20/20 (100%), 4/20 (20%), 80%, p<0.001
Carcinogen: N-BUTYL-N-(4-HYDROXYBUTYL)NITROSAMINE, 3817-11-6, Dose [Inhibitor]: 0, 0.1% IN DIET BEGINNING 5 WK PRIOR TO CARCINOGEN TREATMENT AND CONTINUING FOR DURATION OF STUDY (STUDY DURATION: 7 MO), Route [Inhibitor]: ORAL, Species: MOUSE, Strain/Sex: B6D2F1/MALE, Target Tissue: Type of Lesion: BLADDER: CARCINOMA IN SITU, Dose [Carcinogen]: 5 MG IN SALINE SOLUTION 2/WK FOR 9 WK
  tumour outcome (control, treated, inhibition, significance): 7/24 (29%), 5/24 (21%), 28%, not calculated
Carcinogen: N-BUTYL-N-(4-HYDROXYBUTYL)NITROSAMINE, 3817-11-6, Dose [Inhibitor]: 0, 0.1% IN DIET BEGINNING 5 WK PRIOR TO CARCINOGEN TREATMENT AND CONTINUING FOR DURATION OF STUDY (STUDY DURATION: 7 MO), Route [Inhibitor]: ORAL, Species: MOUSE, Strain/Sex: B6D2F1/MALE, Target Tissue: Type of Lesion: BLADDER: TRANSITIONAL CELL CARCINOMA, Dose [Carcinogen]: 5 MG IN SALINE SOLUTION 2/WK FOR 9 WK
  tumour outcome (control, treated, inhibition, significance): 8/24 (33%), 10/24 (42%), -27%, not calculated
Carcinogen: N-BUTYL-N-(4-HYDROXYBUTYL)NITROSAMINE, 3817-11-6, Dose [Inhibitor]: 0, 0.1% IN DIET BEGINNING 5 WK PRIOR TO CARCINOGEN TREATMENT AND CONTINUING FOR DURATION OF STUDY (STUDY DURATION: 7 MO), Route [Inhibitor]: ORAL, Species: MOUSE, Strain/Sex: B6D2F1/MALE, Target Tissue: Type of Lesion: BLADDER: TUMOR, Dose [Carcinogen]: 5 MG IN SALINE SOLUTION 2/WK FOR 9 WK
  tumour outcome (control, treated, inhibition, significance): 15/24 (63%), 15/24 (63%), 0%, not significant
Carcinogen: N-BUTYL-N-(4-HYDROXYBUTYL)NITROSAMINE, 3817-11-6, Dose [Inhibitor]: 0, 50 PPM IN DRINKING WATER FOR 2O WK BEGINNING 1 WK POST CARCINOGEN TREATMENT (STUDY DURATION: 41 WK), Route [Inhibitor]: ORAL, Species: MOUSE, Strain/Sex: ICR/MALE, Target Tissue: Type of Lesion: URINARY BLADDER: CARCINOMA, Dose [Carcinogen]: 250 PPM IN DRINKING WATER FOR 20 WK
  tumour outcome (control, treated, inhibition, significance): 15/36 (42%), 10/31 (33%), 21%, not significant
Carcinogen: N-BUTYL-N-(4-HYDROXYBUTYL)NITROSAMINE, 3817-11-6, Dose [Inhibitor]: 0, 50 PPM IN DRINKING WATER FOR 20 WK BEGINNING 1 WK POST CARCINOGEN TREATMENT (STUDY DURATION: 41 WK), Route [Inhibitor]: ORAL, Species: MOUSE, Strain/Sex: ICR/MALE, Target Tissue: Type of Lesion: URINARY BLADDER: PAPILLOMA, Dose [Carcinogen]: 250 PPM IN DRINKING WATER FOR 20 WK
  tumour outcome (control, treated, inhibition, significance): 2/36 (6%), 3/31 (10%), -67%, not significant
Carcinogen: N-METHYL-N-NITROSOUREA, 684-93-5, Dose [Inhibitor]: 0, 1130 MG/KG OF DIET BEGINNING 2 D POST CARCINOGEN DOSE AND CONTINUING FOR DURATION OF STUDY (STUDY DURATION: 90 D), Route [Inhibitor]: ORAL, Species: RAT, Strain/Sex: SPRAGUE-DAWLEY/FEMALE, Target Tissue: Type of Lesion: MAMMARY GLAND: ADENOCARCINOMA, Dose [Carcinogen]: 45 MG/KG BW ONCE AT 50 D OF AGE
  tumour outcome (control, treated, inhibition, significance): 100%, 100%, 0%, not significant
Carcinogen: N-METHYL-N-NITROSOUREA, 684-93-5, Dose [Inhibitor]: 0, 3390 MG/KG OF DIET BEGINNING 2 D POST CARCINOGEN DOSE AND CONTINUING FOR DURATION OF STUDY (STUDY DURATION: 90 D), Route [Inhibitor]: ORAL, Species: RAT, Strain/Sex: SPRAGUE-DAWLEY/FEMALE, Target Tissue: Type of Lesion: MAMMARY GLAND: ADENOCARCINOMA, Dose [Carcinogen]: 45 MG/KG BW ONCE AT 50 D OF AGE
  tumour outcome (control, treated, inhibition, significance): 100%, 90%, 10%, not calculated
